Results as given in patent US8017612B2, “Piperazine compound and use thereof as a HCV polymerase inhibitor” (priority 2006, dated 2011).

Experiments:
[1] = target: T1, HCV polymerase (NS5B) type 1b (Hepatitis C virus genotype 1b, UniProt P26663); assay: Assay of enzyme (HCV polymerase) inhibitory activity, type 1b enzyme; type: biochemical, HCV BK strain (type 1b); conditions: HCV polymerase inhibitory activity (IC50), 1b, type 1b enzyme 0.5 μg/ml, 25° C., 60 min
T1 construct: a region encoding NS5B (J Virol 1991 March, 65(3), 1105-13, 544 amino acids after deletion of 47 amino acids on the C-terminal); 6xHis (C); made in house; host or cells: Escherichia coli
In short: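 IC50 derived from [3H]UTP incorporation into TCA-insoluble RNA, compared with and without test compound. Reaction (25 °C, 60 min, Tris pH 7.5, 5 mM MgCl2): E. coli-expressed 1b NS5B Δ47 with His tag at 0.5 μg/ml, 5 μg/ml run-off substrate RNA, ATP/GTP/CTP 50 μM, UTP 2 μM.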

[2] = target: T2, HCV polymerase (NS5B) type 1a (Hepatitis C virus genotype 1a, UniProt P26664); assay: Assay of enzyme (HCV polymerase) inhibitory activity, type 1a enzyme; type: biochemical, HCV type 1a (cloned from the blood of patients); conditions: HCV polymerase inhibitory activity (IC50), 1a, type 1a enzyme 1.5 μg/ml, 25° C., 60 min
T2 construct: made in house; host or cells: Escherichia coli (by the 'similar method' of the 1b enzyme)
In short: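 Reactions ran 60 min at 25° C in 20 mM Tris-HCl pH 7.5, 5 mM MgCl2, 50 mM NaCl, holding genotype 1a NS5B (1.5 μg/ml, Δ47 C-terminus, 6His), substrate RNA 5 μg/ml, UTP 2 μM with tritiated UTP and other NTPs 50 μM. IC50 derived from incorporated radiolabel in filter-trapped RNA relative to uninhibited reaction.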

Row | SMILES | IC50 [1] [nM] | IC50 [2] [nM]
1 | CC(C)c1ccc(CNC(=O)[C@H]2CN(c3nccn3C)CCN2S(=O)(=O)c2ccc(C(F)(F)F)cc2)cc1 [Example 352, (R)-4-(1-methyl-1H-imidazol-2-yl)-1-(4-trifluoromethyl-benzenesulfonyl)-piperazine-2-carboxylic acid 4-isopropyl-benzylamide] | 100 to 1000 | > 1000
2 | CC(C)c1ccc(CNC(=O)[C@H]2CN(c3ncc[nH]3)CCN2S(=O)(=O)c2ccc(C(F)(F)F)cc2)cc1 [Example 353, (R)-4-(1H-imidazol-2-yl)-1-(4-trifluoromethyl-benzenesulfonyl)-piperazine-2-carboxylic acid 4-isopropyl-benzylamide] | 100 to 1000 | 100 to 1000
3 | CNC(=O)c1sc(N2CCN(S(=O)(=O)c3ccc(OC(F)(F)F)cc3)[C@@H](C(=O)NCc3ccc(C(C)C)cc3)C2)nc1C [Example 354, (R)-4-(4-methyl-5-methylcarbamoyl-thiazol-2-yl)-1-(4-trifluoromethoxy-benzenesulfonyl)-piperazine-2-carboxylic acid 4-isopropyl-benzylamide] | < 100 | < 100
4 | Cc1nc(N2CCN(S(=O)(=O)c3ccc(OC(F)(F)F)cc3)[C@@H](C(=O)NCc3ccc(C(C)C)cc3)C2)sc1C(=O)N(C)C [Example 355, (R)-4-(5-dimethylcarbamoyl-4-methyl-thiazol-2-yl)-1-(4-trifluoromethoxy-benzenesulfonyl)-piperazine-2-carboxylic acid 4-isopropyl-benzylamide] | < 100 | < 100
5 | Cc1cc(C2CC2)ccc1CNC(=O)[C@H]1CN(c2nc(C)c(C(=O)O)s2)CCN1S(=O)(=O)c1ccc(OC(F)(F)F)cc1 [Example 356, 2-[(R)-3-(4-cyclopropyl-2-methyl-benzylcarbamoyl)-4-(4-trifluoromethoxy-benzenesulfonyl)-piperazin-1-yl]-4-methyl-thiazole-5-carboxylic acid] | < 100 | < 100
6 | CC(C)c1ccc(CNC(=O)[C@H]2CN(c3ncc(C(=O)O)c(O)n3)CCN2S(=O)(=O)c2ccc(C(F)(F)F)cc2)cc1 [Example 357, 4-hydroxy-2-[(R)-3-(4-isopropyl-benzylcarbamoyl)-4-(4-trifluoromethyl-benzenesulfonyl)-piperazin-1-yl]-pyrimidine-5-carboxylic acid] | 100 to 1000 | > 1000
7 | Cc1nc(N2CCN(S(=O)(=O)c3ccc(OC(F)(F)F)cc3)[C@@H](C(=O)NCc3ccc(C(C)C)cc3)C2)sc1C(=O)NCC(=O)OC(C)(C)C [Example 358, ({2-[(R)-3-(4-isopropyl-benzylcarbamoyl)-4-(4-trifluoromethoxy-benzenesulfonyl)-piperazin-1-yl]-4-methyl-thiazole-5-carbonyl}-amino)-acetic acid tert-butyl ester] | < 100 | < 100
8 | Cc1nc(N2CCN(S(=O)(=O)c3ccc(OC(F)(F)F)cc3)[C@@H](C(=O)NCc3ccc(C(C)C)cc3)C2)sc1C(=O)NCCC(=O)OC(C)(C)C [Example 359, 3-({2-[(R)-3-(4-isopropyl-benzylcarbamoyl)-4-(4-trifluoromethoxy-benzenesulfonyl)-piperazin-1-yl]-4-methyl-thiazole-5-carbonyl}-amino)-propionic acid tert-butyl ester] | < 100 | < 100
9 | Cc1nc(N2CCN(S(=O)(=O)c3ccc(OC(F)(F)F)cc3)[C@@H](C(=O)NCc3ccc(C(C)C)cc3)C2)sc1C(=O)NCC(=O)O [Example 360, ({2-[(R)-3-(4-isopropyl-benzylcarbamoyl)-4-(4-trifluoromethoxy-benzenesulfonyl)-piperazin-1-yl]-4-methyl-thiazole-5-carbonyl}-amino)-acetic acid] | < 100 | < 100
10 | Cc1nc(N2CCN(S(=O)(=O)c3ccc(OC(F)(F)F)cc3)[C@@H](C(=O)NCc3ccc(C(C)C)cc3)C2)sc1C(=O)NCCC(=O)O [Example 361, 3-({2-[(R)-3-(4-isopropyl-benzylcarbamoyl)-4-(4-trifluoromethoxy-benzenesulfonyl)-piperazin-1-yl]-4-methyl-thiazole-5-carbonyl}-amino)-propionic acid] | < 100 | < 100
11 | CC(C)c1ccc(CNC(=O)[C@H]2CN(c3nc([N+](=O)[O-])n[nH]3)CCN2S(=O)(=O)c2ccc(C(F)(F)F)cc2)cc1 [Example 362, (R)-4-(5-nitro-2H-[1,2,4]triazol-3-yl)-1-(4-trifluoromethyl-benzenesulfonyl)-piperazine-2-carboxylic acid 4-isopropyl-benzylamide] | 100 to 1000 | > 1000
12 | CCCc1ccc(CNC(=O)[C@H]2CN(c3nc(CC)c(C(=O)O)s3)CCN2S(=O)(=O)c2ccc(OC(F)(F)F)cc2)c(C)c1 [Example 363, 4-ethyl-2-[(R)-3-(2-methyl-4-propyl-benzylcarbamoyl)-4-(4-trifluoromethoxy-benzenesulfonyl)-piperazin-1-yl]-thiazole-5-carboxylic acid] | < 100 | < 100
13 | Cc1cc(C(C)C)ccc1CNC(=O)[C@H]1CN(c2nc(C)c(C(=O)O)s2)CCN1S(=O)(=O)c1ccc(OC(F)(F)F)cc1 [Example 364, 2-[(R)-3-(4-isopropyl-2-methyl-benzylcarbamoyl)-4-(4-trifluoromethoxy-benzenesulfonyl)-piperazin-1-yl]-4-methyl-thiazole-5-carboxylic acid] | < 100 | < 100
14 | Cc1nc(N2CCN(S(=O)(=O)c3ccc(OC(F)(F)F)cc3)[C@@H](C(=O)NCc3ccc(OC(F)(F)F)cc3)C2)sc1C(=O)O [Example 365, 4-methyl-2-[(R)-4-(4-trifluoromethoxy-benzenesulfonyl)-3-(4-trifluoromethoxy-benzylcarbamoyl)-piperazin-1-yl]-thiazole-5-carboxylic acid] | < 100 | < 100
15 | CCc1ccc(CNC(=O)[C@H]2CN(c3nc(C)c(C(=O)O)s3)CCN2S(=O)(=O)c2ccc(OC(F)(F)F)cc2)cc1 [Example 366, 2-[(R)-3-(4-ethyl-benzylcarbamoyl)-4-(4-trifluoromethoxy-benzenesulfonyl)-piperazin-1-yl]-4-methyl-thiazole-5-carboxylic acid] | < 100 | < 100
16 | Cc1nc(N2CCN(S(=O)(=O)c3ccc(OC(F)(F)F)cc3)[C@@H](C(=O)NCc3ccc(C(C)(C)C)cc3)C2)sc1C(=O)O [Example 367, 2-[(R)-3-(4-tert-butyl-benzylcarbamoyl)-4-(4-trifluoromethoxy-benzenesulfonyl)-piperazin-1-yl]-4-methyl-thiazole-5-carboxylic acid] | < 100 | < 100
17 | CC(C)c1ccc(CNC(=O)[C@H]2CN(c3nc(N)n[nH]3)CCN2S(=O)(=O)c2ccc(C(F)(F)F)cc2)cc1 [Example 368, (R)-4-(5-amino-2H-[1,2,4]triazol-3-yl)-1-(4-trifluoromethyl-benzenesulfonyl)-piperazine-2-carboxylic acid 4-isopropyl-benzylamide] | 100 to 1000 | > 1000
18 | Cc1nc(N2CCN(S(=O)(=O)c3ccc(OC(F)(F)F)cc3)[C@@H](C(=O)NCc3ccc(C(C)C)cc3)C2)sc1C(=O)N[C@H](C)C(=O)O [Example 369, (R)-2-({2-[(R)-3-(4-isopropyl-benzylcarbamoyl)-4-(4-trifluoromethoxy-benzenesulfonyl)-piperazin-1-yl]-4-methyl-thiazole-5-carbonyl}-amino)-propionic acid] | < 100 | < 100
